pIC50: −log10 of the molar value.
How the values were obtained:
[1] = target: Death-associated protein kinase 1 (Homo sapiens, UniProt P53355); experiment: Selectivity interaction (KinomeScan (DiscoverX)) EUB0000595a DAPK1; settings: at 10 µM
[2] = tested on: Phosphatidylinositol 4,5-bisphosphate 3-kinase catalytic subunit alpha isoform (Homo sapiens), P42336 [E545A]; settings: at 10 µM
[3] = target: T1, Receptor-interacting serine/threonine-protein kinase 4 (Homo sapiens) (UniProt P57078); experiment: Selectivity interaction (KinomeScan (DiscoverX)) EUB0000695a RIPK4; settings: at 100 nM
T1 sequence (whole entry): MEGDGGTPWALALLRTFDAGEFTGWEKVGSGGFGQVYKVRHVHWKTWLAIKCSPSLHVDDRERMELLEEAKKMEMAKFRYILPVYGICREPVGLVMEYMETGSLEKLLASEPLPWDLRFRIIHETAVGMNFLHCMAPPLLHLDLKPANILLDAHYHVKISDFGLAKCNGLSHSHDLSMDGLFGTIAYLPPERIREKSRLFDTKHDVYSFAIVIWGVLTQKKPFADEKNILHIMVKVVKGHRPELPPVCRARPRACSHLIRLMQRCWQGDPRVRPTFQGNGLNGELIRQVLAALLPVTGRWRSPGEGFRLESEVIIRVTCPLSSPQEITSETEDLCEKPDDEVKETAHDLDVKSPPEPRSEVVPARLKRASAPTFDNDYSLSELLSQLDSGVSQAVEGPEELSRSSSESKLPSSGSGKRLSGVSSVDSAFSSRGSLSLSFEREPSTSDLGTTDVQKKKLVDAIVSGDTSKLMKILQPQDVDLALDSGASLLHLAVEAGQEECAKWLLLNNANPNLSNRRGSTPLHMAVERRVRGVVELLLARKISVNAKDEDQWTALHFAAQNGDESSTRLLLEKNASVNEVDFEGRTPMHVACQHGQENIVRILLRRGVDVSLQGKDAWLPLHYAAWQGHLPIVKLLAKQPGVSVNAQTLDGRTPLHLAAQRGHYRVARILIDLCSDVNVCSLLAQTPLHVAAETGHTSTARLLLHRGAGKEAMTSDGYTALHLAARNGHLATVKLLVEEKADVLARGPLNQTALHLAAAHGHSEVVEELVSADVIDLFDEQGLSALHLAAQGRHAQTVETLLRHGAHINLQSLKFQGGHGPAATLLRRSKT

[4] = target: Phosphatidylinositol 4-phosphate 3-kinase C2 domain-containing subunit beta (Homo sapiens) (UniProt O00750); experiment: Selectivity interaction (KinomeScan (DiscoverX)) EUB0000695a PIK3C2B; settings: at 100 nM
[5] = target: Mitogen-activated protein kinase kinase kinase 14 (Homo sapiens) (UniProt Q99558); experiment: Selectivity interaction (LanthaScreen Eu Kinase Binding Assay) EUB0001632a MAP3K14; settings: at 10 µM
Sequence of Mitogen-activated protein kinase kinase kinase 14 (Homo sapiens) (Q99558 whole entry, looked up): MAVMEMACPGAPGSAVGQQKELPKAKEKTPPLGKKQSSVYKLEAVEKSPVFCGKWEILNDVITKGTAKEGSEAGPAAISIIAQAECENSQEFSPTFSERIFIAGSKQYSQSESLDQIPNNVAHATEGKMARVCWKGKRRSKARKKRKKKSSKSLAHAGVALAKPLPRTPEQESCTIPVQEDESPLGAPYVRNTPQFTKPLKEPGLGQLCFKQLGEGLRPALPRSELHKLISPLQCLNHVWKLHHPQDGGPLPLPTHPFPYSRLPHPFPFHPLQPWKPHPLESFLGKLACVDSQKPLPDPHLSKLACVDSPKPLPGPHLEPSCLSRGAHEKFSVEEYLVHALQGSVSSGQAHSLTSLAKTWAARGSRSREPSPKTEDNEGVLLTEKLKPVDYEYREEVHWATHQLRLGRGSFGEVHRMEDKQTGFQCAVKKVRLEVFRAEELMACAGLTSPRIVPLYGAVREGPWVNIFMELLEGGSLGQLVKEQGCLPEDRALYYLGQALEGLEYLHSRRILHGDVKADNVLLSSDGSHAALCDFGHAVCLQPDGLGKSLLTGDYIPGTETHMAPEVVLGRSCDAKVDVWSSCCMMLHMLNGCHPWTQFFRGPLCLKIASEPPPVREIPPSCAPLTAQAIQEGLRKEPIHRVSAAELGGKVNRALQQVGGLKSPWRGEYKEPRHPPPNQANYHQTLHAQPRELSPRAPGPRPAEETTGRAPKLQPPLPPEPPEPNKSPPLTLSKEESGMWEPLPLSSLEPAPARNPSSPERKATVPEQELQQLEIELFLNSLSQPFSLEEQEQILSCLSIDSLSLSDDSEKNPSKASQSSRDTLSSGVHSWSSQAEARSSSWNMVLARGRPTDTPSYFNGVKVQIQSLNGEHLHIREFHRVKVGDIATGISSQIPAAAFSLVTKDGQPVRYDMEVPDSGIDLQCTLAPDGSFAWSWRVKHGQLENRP

[6] = tested on: RAF proto-oncogene serine/threonine-protein kinase (Homo sapiens), P04049 [Y340D,Y341D]; experiment: Selectivity interaction (LanthaScreen Eu Kinase Binding Assay) EUB0001632a RAF1; settings: at 10 µM
[7] = target: Histone-lysine N-methyltransferase ASH1L (Homo sapiens) (UniProt Q9NR48); experiment: Selectivity interaction (Bromodomain panel (DSF asssay)) EUB0000270b ASH1L
[8] = target: Mitogen-activated protein kinase kinase kinase 9 (Homo sapiens) (UniProt P80192); experiment: Selectivity interaction (KinomeScan (DiscoverX)) EUB0001049a MAP3K9; settings: at 1 µM
Sequence of Mitogen-activated protein kinase kinase kinase 9 (Homo sapiens) (P80192 whole entry, looked up): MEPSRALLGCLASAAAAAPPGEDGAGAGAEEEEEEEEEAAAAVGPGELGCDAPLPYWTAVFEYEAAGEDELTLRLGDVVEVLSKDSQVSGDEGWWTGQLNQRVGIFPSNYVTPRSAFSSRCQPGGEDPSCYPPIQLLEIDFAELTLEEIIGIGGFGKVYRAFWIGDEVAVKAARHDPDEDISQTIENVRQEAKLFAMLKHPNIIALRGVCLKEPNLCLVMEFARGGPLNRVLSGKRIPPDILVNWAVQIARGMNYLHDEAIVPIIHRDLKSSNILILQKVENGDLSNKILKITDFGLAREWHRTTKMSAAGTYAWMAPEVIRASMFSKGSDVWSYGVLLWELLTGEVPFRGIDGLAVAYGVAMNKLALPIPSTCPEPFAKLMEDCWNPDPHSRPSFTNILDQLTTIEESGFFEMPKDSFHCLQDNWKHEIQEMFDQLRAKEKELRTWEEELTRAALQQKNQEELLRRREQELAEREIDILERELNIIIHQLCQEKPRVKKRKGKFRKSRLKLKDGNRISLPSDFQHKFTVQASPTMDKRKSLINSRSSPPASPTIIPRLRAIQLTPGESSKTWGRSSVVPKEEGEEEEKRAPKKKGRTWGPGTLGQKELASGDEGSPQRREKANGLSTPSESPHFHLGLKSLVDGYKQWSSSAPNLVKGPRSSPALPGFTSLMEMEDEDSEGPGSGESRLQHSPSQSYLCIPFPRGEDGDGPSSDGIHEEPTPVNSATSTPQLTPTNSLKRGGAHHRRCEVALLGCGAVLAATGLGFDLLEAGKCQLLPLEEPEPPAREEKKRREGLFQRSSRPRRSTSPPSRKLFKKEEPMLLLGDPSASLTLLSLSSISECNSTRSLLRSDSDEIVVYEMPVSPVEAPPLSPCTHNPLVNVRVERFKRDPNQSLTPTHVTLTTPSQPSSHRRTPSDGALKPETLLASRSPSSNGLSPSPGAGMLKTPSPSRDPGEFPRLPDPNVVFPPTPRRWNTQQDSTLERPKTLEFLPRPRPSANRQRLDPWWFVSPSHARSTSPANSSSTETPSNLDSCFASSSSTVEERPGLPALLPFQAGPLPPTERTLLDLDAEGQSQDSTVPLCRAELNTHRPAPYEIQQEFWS

[9] = target: T2, Interleukin-1 receptor-associated kinase 4 (Homo sapiens, UniProt Q9NWZ3); experiment: Selectivity interaction (Enzymatic assay) EUB0001550a IRAK4
T2 sequence (Q9NWZ3 whole entry): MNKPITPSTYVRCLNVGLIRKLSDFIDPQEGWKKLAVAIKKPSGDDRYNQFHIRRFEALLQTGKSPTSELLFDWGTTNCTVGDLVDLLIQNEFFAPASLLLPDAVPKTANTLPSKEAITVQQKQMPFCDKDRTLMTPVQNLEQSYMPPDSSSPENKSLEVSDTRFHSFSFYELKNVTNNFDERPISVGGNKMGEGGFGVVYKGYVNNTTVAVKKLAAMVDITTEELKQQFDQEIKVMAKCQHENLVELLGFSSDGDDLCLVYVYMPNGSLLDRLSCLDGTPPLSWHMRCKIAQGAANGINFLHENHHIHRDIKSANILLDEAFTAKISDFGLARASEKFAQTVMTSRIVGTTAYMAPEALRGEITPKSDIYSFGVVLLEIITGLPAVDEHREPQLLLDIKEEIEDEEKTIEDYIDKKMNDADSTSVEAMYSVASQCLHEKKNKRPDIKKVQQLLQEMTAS

[10] = target: Mitogen-activated protein kinase 14 (Homo sapiens, UniProt Q16539); experiment: Selectivity interaction (Upstate Kinase Profiler service (Millipore)) EUB0000056c MAPK14; settings: at 1 µM
[11] = target: Dual specificity mitogen-activated protein kinase kinase 2 (Homo sapiens) (UniProt P36507); experiment: Selectivity interaction (ActivX KiNativ screen (kinase selectivity in THP-1 cell lysates)) EUB0000639a MAP2K2; type: subcellular; settings: lysate, at 0.2 µM
Sequence of Dual specificity mitogen-activated protein kinase kinase 2 (Homo sapiens) (P36507 whole entry, canonical isoform): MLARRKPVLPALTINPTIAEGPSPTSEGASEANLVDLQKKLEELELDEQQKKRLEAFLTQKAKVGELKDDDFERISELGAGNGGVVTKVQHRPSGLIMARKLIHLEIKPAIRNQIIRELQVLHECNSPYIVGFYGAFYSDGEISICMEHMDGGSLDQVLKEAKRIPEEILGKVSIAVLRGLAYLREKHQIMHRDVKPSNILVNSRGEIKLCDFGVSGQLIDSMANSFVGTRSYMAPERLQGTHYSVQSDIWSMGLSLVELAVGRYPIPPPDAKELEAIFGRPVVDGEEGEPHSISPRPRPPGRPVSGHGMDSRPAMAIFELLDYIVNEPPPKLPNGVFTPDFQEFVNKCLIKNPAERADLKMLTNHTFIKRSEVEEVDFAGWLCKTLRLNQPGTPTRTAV

[12] = target: Phosphorylase b kinase gamma catalytic chain, skeletal muscle/heart isoform (Homo sapiens) (UniProt Q16816); settings: at 10 µM

Sequence of Death-associated protein kinase 1 (P53355 whole entry, looked up, canonical isoform): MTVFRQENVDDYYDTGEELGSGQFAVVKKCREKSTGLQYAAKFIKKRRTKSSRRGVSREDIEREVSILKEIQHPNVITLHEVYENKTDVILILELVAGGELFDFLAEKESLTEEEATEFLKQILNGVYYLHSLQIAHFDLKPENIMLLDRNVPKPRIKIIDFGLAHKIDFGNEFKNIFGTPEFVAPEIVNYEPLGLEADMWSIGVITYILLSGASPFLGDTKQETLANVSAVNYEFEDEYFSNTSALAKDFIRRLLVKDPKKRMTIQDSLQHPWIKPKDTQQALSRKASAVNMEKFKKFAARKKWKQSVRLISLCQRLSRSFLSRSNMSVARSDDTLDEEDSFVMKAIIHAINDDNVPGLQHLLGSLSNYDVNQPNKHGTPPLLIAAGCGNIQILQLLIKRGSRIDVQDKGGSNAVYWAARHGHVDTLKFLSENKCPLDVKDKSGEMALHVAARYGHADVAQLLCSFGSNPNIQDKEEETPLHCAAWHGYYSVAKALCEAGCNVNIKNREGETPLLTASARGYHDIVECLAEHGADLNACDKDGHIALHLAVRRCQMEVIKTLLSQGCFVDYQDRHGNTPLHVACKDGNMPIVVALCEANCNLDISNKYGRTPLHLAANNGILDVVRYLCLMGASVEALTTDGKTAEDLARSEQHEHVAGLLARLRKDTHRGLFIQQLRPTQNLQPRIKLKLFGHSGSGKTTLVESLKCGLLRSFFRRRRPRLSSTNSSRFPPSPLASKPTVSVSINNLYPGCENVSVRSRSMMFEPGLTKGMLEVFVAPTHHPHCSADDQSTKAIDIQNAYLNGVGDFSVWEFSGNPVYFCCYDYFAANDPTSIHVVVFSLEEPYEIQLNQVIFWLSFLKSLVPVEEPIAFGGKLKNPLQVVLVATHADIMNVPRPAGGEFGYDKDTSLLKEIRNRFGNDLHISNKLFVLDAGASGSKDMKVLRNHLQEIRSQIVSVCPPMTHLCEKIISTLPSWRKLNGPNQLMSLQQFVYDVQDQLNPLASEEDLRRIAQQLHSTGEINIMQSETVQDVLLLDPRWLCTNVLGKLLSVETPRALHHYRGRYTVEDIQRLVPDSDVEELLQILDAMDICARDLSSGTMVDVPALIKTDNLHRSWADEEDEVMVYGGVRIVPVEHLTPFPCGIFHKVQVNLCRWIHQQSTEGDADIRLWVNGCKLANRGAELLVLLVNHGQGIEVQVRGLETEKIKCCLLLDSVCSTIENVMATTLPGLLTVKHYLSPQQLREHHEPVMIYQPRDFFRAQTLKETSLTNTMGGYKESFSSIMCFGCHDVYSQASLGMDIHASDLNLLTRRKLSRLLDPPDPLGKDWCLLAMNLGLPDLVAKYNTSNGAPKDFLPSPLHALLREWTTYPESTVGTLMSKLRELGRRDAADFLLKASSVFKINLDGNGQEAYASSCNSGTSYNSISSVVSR
Sequence of Phosphatidylinositol 4,5-bisphosphate 3-kinase catalytic subunit alpha isoform (Homo sapiens), P42336 [E545A] (P42336 whole entry E545A, canonical isoform): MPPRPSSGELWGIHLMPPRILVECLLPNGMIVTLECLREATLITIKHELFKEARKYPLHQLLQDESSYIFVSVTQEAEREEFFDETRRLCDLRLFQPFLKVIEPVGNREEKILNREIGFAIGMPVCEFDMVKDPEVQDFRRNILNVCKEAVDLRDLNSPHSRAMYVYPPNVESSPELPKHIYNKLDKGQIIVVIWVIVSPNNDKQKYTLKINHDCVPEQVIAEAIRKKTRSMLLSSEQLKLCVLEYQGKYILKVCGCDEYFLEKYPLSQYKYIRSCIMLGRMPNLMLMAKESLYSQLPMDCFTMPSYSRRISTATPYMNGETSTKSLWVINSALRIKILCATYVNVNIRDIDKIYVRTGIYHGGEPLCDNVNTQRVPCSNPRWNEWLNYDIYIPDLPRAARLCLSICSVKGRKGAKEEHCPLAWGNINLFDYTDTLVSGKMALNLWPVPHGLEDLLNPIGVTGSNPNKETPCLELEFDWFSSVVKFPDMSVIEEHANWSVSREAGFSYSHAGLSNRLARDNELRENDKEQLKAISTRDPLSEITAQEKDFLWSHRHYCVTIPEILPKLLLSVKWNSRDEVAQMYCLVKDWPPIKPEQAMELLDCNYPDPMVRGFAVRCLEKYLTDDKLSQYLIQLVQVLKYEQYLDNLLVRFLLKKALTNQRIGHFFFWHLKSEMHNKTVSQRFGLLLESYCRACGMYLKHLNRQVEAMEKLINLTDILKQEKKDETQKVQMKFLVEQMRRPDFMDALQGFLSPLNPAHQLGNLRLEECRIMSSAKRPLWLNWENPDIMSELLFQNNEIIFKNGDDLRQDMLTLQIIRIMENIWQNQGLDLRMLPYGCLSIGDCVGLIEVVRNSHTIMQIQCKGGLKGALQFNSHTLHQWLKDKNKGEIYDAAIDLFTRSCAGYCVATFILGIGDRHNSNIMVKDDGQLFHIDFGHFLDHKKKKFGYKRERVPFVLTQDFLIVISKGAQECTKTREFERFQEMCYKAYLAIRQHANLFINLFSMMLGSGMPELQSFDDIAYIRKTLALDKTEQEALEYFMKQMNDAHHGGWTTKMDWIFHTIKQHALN

COCC(=O)NC/C=C/c1ccc2ncnc(Nc3ccc(Oc4ccc(C)nc4)c(C)c3)c2c1 [CP-724714]
% of control [1]: 76%
% of control [2]: 33%

Cc1cc(F)c(C(=O)Nc2cccc(-c3nncn3C(C)C)n2)cc1-n1cnc(C2CC2)c1
% of control [3]: 100%
% of control [4]: 100%

Cn1cc(-n2cnc3c(NCc4nc5cc(Cl)c(Cl)cc5[nH]4)nc(N4CCOCC4)nc32)cn1
% of inhibition [5]: -10.4%
% of inhibition [6]: 5.65%

Cc1cc(CN)cc(C)c1-c1ncn(C)c1-c1cncn1C
dTM [7]: -1.06 K

COc1cc(Nc2nc(C)cc(-c3cnn4nc(OC)ccc34)n2)cc(C(F)(F)F)c1
% of control [8]: 96%

CN(C)CC#Cc1ccc2[nH]c3c(c2c1)-c1nc(N)ncc1CCC3
pIC50 [9]: 5.35

Cc1ccc(-c2ccc3c(ccc4sc5c(c43)NC[C@@H](C)NC5=O)n2)cn1
% of inhibition [10]: 0%

CC[C@@H]1[C@H](F)C(=O)N[C@@H]1COc1nccc2cc(C(N)=O)c(OC)cc12 [ZIMLOVISERTIB]
% of inhibition [11]: 11.6%

CCN(CC)CCCCNc1ncc2cc(-c3cc(OC)cc(OC)c3)c(NC(=O)NC(C)(C)C)nc2n1
% of control [12]: 100%

Reference: ChEMBL document CHEMBL5465560, “Selectivity Literature for EUbOPEN Chemogenomic Library” (2024)
